This note sets out measurements from US4134989A (Aziende Chimiche Riunite Angelini Francesco A.C.R.A.F. …, priority 1976, dated 1979).

One data set has as its system gastric mucosa. Put plainly: Gastrointestinal tolerance: ulcerogenic activity in the gastric mucosa of rats. It is filed as in vivo, Long-Evans rats.
For data set [1], the system named is writhing reflexes induced by phenylquinone. Put plainly: Analgesic activity: writhing reflexes induced by phenylquinone (Hendershot and Forsaith). The data set is classed as in vivo, Swiss mice. From the text:
(§1) 3. Anti-inflammatory activity: In connection with the anti-inflammatory activity, both the anti-edema and analgesic activities were studied (namely, the ability to inhibit the painful response from inflamed tissues). The anti-edema activity was studied according to Winter et al. (1962). WINTER C. A., RISLEY E. A. and NUSS G. W., Carrageenin-induced edema in hind
The analgesic activity was studied according to Hendershot and Forsaith (1959). HENDERSHOT L. C. and FORSAITH J., Antagonism of the frequency of phenylquinone induced writhing in the mouse by weak analgesics and non-analgesics. J. Pharmacol. Exp. Ther. 125, 237-240, 1959. Swiss mice of both sexes weighing 18-22 grams were used.

Data set [2] can be described thus: Pharmacokinetic study: serum samples after oral administration to rats. It is filed as in vivo, Long-Evans rats. Here is the method:
The test for the anti-tussive activity was done according to S[…]nd Pozzatti (1960) S[…]. and POZZATTI C., Anti-tussive activity and other pharmacological properties of six oxadiazoles. Arch. int. pharmacodyn. 129, 249-263, 1960. Since the details are given in this publication, it should only be recalled that the test is performed on guineapigs by using acrolein inhalation to produce cough. Male guinea pigs were used weighing 300-500 grams. The pharmacokinetic study was performed in Long-Evans rats of both sexes weighing 150 grams. […] The animals were sacrificed at
time intervals and serum samples were taken. […] MIZUTANI M. and NAITO S., Studies on absorption and excretion of drugs. XXIX. Biopharmaceutical studies on guaiacol glycerol ether and related compounds. I. Blood level of guaiacol glycerol ether in rabbit and its binding with serum proteins. Chem. Pharm. Bull. 15, 1422-1426, 1967. Moreoever, ibuprofen and guaiacol were dosed according to the methods of Kaiser and […] (1974) and Mizutani and Naito (1967), respectively. KAISER, D. G. and […]. J., GLC determination of ibuprofen [(+)-2-(p-isobutylphenyl)propionic acid] in plasma. J. Pharm. Sci. 63, 219-221, 1974. MIZUTANI M. and NAITO S., Studies on absorption and excretion of drugs. XXIX. Biopharmaceutical studies on guaiacol glycerol ether and related compounds. […]

The subject of data set [3] is intestine. The note with it: rat, in vivo, po.
Description: (§2) Experiments were done in Long-Evans rats of both sexes weighing 150-190 grams. The drugs were suspended in methyl-cellulose (0.5%) and given by gavage. The animals were fasted during the 8 hours before treatment and were sacrificed 18 hours later. They were autopsied and gastrointestinal lesions were scored according to the score system described by Cioli et al. (1967).
The next data set in a line: in vivo. The note with it: rat, po.
Data set [4] deals with carrageenin-induced paw edema. Put plainly: Anti-edema activity: carrageenin-induced paw edema in rats (Winter et al.). The data set is classed as in vivo, Long-Evans rats. Also noted: Reduction of edema: unit not given here. The following applies: for anti-inflammatory activity, comparison of the two drugs: carrageenin edema, rats, by gavage.
Source text: as §1
paw of the rat as an assay for anti-inflammatory drugs. Proc. Soc. Exp. Biol. Med. 111, 544-547, 1962. […]
In general terms: The carrageenan paw model is a standard test of acute inflammation.

Data set [5] deals with intestine. Description: Gastrointestinal tolerance: ulcerogenic activity on the intestine of rats. The note with it: intestinal lesions, by gavage.
Description: as §2
Data set [6] in a line: Hydrolysis of GIH in the presence of serum.
Data set [7] is described as follows: Hydrolysis of GIH in the presence of artificial gastric juices.
Data set [8] has as its system cough produced by acrolein inhalation. Put plainly: Anti-tussive activity: cough produced by acrolein inhalation in guinea pigs (Silvestrini and Pozzatti). It is filed as in vivo. The note with it: Cavia porcellus, acrolein-induced cough. Here is the method: The test for the anti-tussive activity was done according to Silvestrini and Pozzatti (1960) […] B. and POZZATTI C., Anti-tussive activity and other pharmacological properties of six oxadiazoles. Arch. int. pharmacodyn. 129, 249-263, 1960. Since the details are given in this publication, it should only be recalled that the test is performed on guineapigs by using acrolein inhalation to produce cough. Male guinea pigs were used weighing 300-500 grams. The pharmacokinetic study was performed in Long-Evans rats of both sexes weighing 150 grams. […] The animals were sacrificed at […]

Read-outs that look alike come from different tables or passages of the source.

Description for gastric mucosa: as §2
Description for in vivo: Long-Evans rats of both sexes were used weighing 135-188 grams. The drugs were suspended in methyl-cellulose (0.5%) and given by gavage. Deaths were recorded during the two weeks following treatment. The LD50 was calculated according to Litchfield and Wilcoxon (1949).

By LD50 is commonly meant the dose expected to kill half of the subjects tested. In the case of `CC(C)Cc1ccc(C(C)C(=O)O)cc1` (single isomer, unassigned; (+)) [Ibuprofen, (+)-2-(p-isobutylphenyl)propionic acid, reference compound], the “% of rats with ulcers” value was determined as 11% with gastric mucosa (16 mg/kg p.o.); 33% with gastric mucosa (25 mg/kg p.o.); 43% in the data set with gastric mucosa (75 mg/kg p.o.); 0% in the data set on intestine [3] (16 mg/kg); 20% in the data set on intestine [3] (25 mg/kg); 63% in the data set on intestine [3] (75 mg/kg). Moreover, the “% reduction in number of writhings” value in data set [1] (5 mg/kg p.o.) was 18%; in data set [1] (10 mg/kg p.o.), 46%; in data set [1] (20 mg/kg p.o.), 52%. Moreover, the “presence in serum samples of rats treated with GIH” value in data set [2] is “found in the serum samples”. This molecule yielded an LD50 at 336 h in “in vivo” of 640 mg/kg. The Reduction of edema was found to be 17 in data set [4] (2.5 mg/kg p.o., 2 hours); 15 in data set [4] (2.5 mg/kg p.o., 4 hours); 3 in [4] (2.5 mg/kg p.o., 6 hours); 41 in data set [4] (5 mg/kg p.o., 2 hours); 31 in data set [4] (5 mg/kg p.o., 4 hours); 26 in data set [4] (5 mg/kg p.o., 6 hours). The Reduction of edema came to 57 in data set [4] (10 mg/kg p.o., 2 hours); 47 in [4] (10 mg/kg p.o., 4 hours); 36 in data set [4] (10 mg/kg p.o., 6 hours). The “anti-inflammatory activity, comparison of the two drugs” value in data set [4] was “substantially the same anti-inflammatory activity”.

What is called minimal effective dose is the lowest level tested that produced the effect sought. On to `COc1ccccc1OC(=O)C(C)c1ccc(CC(C)C)cc1` (stereo not shown) [GIH, guaiacol p-isobutyl hydratropate], for which the “% of rats with ulcers” value is on record as 0% with gastric mucosa (25 mg/kg p.o.); 10% in the data set on gastric mucosa (38 mg/kg p.o.); 33% in the data set on gastric mucosa (112 mg/kg p.o.); 0% in the data set on intestine [3] (25 mg/kg); 20% in the data set with intestine [3] (38 mg/kg); 33% in the data set on intestine [3] (112 mg/kg). Moreover, the “effect on the gastric mucosa compared with ibuprofen” value in the data set with gastric mucosa (rats, by gavage) is “less toxic than ibuprofen”. The “% reduction in number of writhings” value in data set [1] (1.9 mg/kg p.o.) was found to be 11%; in data set [1] (3.8 mg/kg p.o.), 28%; in data set [1] (7.5 mg/kg p.o.) it was 37%; in data set [1] (15 mg/kg p.o.), 43%; in data set [1] (30 mg/kg p.o.) it was 55%. Also, in the data set with intestine [5], the “gastrointestinal toxicity compared with ibuprofen” value is on record as “less toxic than ibuprofen”. The hydrolysis entry in [6] was “rapidly hydrolyzed into ibuprofen and guaiacol”; in data set [7] it was “no hydrolysis occurs”. The molecule further registered an LD50 at 336 h in “in vivo” of 1650 mg/kg. Further, the Reduction of edema in data set [4] (1.9 mg/kg p.o., 2 hours) stood at 22; in [4] (1.9 mg/kg p.o., 4 hours), 12; in data set [4] (1.9 mg/kg p.o., 6 hours), 1; in [4] (3.8 mg/kg p.o., 2 hours), 33; in data set [4] (3.8 mg/kg p.o., 4 hours), 26; in data set [4] (3.8 mg/kg p.o., 6 hours), 17. For the same molecule, the Reduction of edema was 41 in data set [4] (7.5 mg/kg p.o., 2 hours); 28 in data set [4] (7.5 mg/kg p.o., 4 hours); 27 in data set [4] (7.5 mg/kg p.o., 6 hours); 50 in data set [4] (15 mg/kg p.o., 2 hours); 45 in data set [4] (15 mg/kg p.o., 4 hours); 43 in data set [4] (15 mg/kg p.o., 6 hours). In data set [4], the “anti-inflammatory activity, comparison of the two drugs” value is recorded as “substantially the same anti-inflammatory activity”. The molecule further came in with a minimal effective dose in data set [8] (po) of 25 mg/kg.

In the case of `COc1ccc2c3c1O[C@H]1[C@@H](O)C=C[C@H]4[C@@H](C2)N(C)CC[C@@]341` [codein, reference compound], the minimal effective dose in [8] (ip) was determined as 2.5 mg/kg.
